{"source": "ChEMBL document CHEMBL1201862", "about": "“PubChem BioAssay data set” (2004)", "key": {"P388/ADR": {"test_system": "P388/ADR", "assay": "cells", "type": "functional", "conditions": "Mus musculus"}, "SN12K1": {"test_system": "SN12K1", "assay": "cells", "type": "functional", "conditions": "Homo sapiens"}, "P388": {"test_system": "P388", "assay": "cells", "type": "functional", "conditions": "Mus musculus"}, "[1]": {"molecular_target": "T1, Endoribonuclease toxin MazF (Escherichia coli K-12, UniProt P0AE70)", "T1 sequence (P0AE70 whole entry)": "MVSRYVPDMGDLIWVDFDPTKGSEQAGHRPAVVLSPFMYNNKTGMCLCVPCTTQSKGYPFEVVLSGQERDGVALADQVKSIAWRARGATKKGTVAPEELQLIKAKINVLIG", "assay": "MazF toxin RNase activators, dose response, biochemical, fluorescence, single-stranded RNA substrate, uHTS hits (AID 588481)", "type": "functional"}, "[2]": {"molecular_target": "T1, Endoribonuclease toxin MazF", "assay": "fluorescent RNA oligo signal without MazF, dose response, counter-screen for MazEF activator project, biochemical, fluorescence, single-stranded RNase substrate (AID 588502)", "type": "functional"}, "CHO": {"test_system": "CHO", "assay": "cytotoxicity in TLR9-MyD88 CHO cells, dose response, cytotoxicity control for TLR9-MyD88 binding inhibitor project, cell-based, luminescence (AID 588339);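 also: CHO cells stably coexpressing TLR9 and MyD88 fusions from primary screen; compound exposure lasted 48 hours before viability readout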", "type": "functional, hamster", "conditions": "Cricetulus griseus"}, "Beta Lactamase": {"molecular_target": "Beta Lactamase (Pseudomonas aeruginosa, UniProt Q932Y6)", "sequence (Q932Y6 whole entry)": "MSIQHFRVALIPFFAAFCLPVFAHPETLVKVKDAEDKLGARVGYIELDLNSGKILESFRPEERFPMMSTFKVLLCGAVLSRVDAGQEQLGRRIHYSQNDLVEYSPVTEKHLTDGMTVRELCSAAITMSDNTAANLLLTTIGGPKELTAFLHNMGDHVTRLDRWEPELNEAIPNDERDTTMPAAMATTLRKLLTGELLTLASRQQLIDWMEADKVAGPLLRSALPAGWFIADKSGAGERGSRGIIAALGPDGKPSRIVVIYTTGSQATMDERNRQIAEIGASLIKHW", "assay": "beta-lactamase reporter inhibitor potency, dose response, artefact control for TLR9-MyD88 binding inhibitor project, BLA reporter cells, FRET fluorescence (AID 588341)", "type": "cell-based"}, "[3]": {"molecular_target": "26S proteasome non-ATPase regulatory subunit 14 (Homo sapiens, UniProt O00487)", "sequence (O00487 whole entry)": "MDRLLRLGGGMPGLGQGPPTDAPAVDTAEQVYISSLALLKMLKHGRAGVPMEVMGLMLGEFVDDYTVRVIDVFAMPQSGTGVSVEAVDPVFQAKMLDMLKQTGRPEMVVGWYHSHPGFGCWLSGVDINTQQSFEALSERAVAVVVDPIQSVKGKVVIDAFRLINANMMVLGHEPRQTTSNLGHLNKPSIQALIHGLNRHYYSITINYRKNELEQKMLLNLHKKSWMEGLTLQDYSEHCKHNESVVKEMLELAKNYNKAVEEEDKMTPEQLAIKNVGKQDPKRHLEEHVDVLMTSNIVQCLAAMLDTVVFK", "assay": "inhibition of proteasome subunit RPN11 – biochemical, fluorescence polarization, uHTS hits, confirmation (AID 602368)", "type": "functional"}, "[4]": {"molecular_target": "72 kDa type IV collagenase (Homo sapiens, UniProt P08253)", "sequence (P08253 whole entry)": "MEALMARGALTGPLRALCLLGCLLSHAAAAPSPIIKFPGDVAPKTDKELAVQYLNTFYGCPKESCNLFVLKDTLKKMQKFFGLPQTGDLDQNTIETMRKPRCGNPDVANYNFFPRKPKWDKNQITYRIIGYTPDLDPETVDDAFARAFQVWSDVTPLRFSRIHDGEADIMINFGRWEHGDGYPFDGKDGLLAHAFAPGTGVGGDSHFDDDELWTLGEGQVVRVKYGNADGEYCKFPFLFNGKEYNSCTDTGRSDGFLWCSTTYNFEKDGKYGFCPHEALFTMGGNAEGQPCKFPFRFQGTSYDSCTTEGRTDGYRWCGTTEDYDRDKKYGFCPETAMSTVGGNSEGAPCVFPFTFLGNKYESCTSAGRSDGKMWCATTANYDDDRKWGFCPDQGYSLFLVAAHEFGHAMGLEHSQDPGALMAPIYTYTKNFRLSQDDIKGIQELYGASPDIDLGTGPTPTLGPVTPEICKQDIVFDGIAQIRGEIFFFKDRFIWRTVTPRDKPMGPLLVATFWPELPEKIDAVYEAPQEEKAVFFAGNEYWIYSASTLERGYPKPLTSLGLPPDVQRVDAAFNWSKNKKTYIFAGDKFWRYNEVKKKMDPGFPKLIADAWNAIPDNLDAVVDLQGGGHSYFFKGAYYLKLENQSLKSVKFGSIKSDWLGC", "assay": "Dose Response validation of uHTS RPN11 inhibitor hits using a MMP-2 Fluorescence assay.", "type": "functional"}, "Prothrombin": {"molecular_target": "Prothrombin (Bos taurus, UniProt P00735)", "assay": "thrombin inhibition, dose response, biochemical, fluorescence polarization, uHTS hits (AID 602369)", "type": "functional"}, "[5]": {"assay": "Luminescence Cell-Based Dose Retest to Confirm Inhibitors of Cancer Stem Cells. [Related pubchem assays (depositor defined):AID2717, AID2721]", "type": "functional", "conditions": "Homo sapiens"}, "Bcl-2-related protein A1": {"molecular_target": "T2, Bcl-2-related protein A1 (Mus musculus, UniProt Q07440)", "T2 sequence (Q07440 whole entry)": "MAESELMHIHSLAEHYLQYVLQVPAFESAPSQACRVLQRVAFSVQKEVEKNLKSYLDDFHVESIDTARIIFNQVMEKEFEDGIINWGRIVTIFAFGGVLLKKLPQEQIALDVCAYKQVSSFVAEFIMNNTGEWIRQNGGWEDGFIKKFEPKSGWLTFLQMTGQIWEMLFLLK", "type": "functional"}, "[6]": {"molecular_target": "T3, Ubiquitin-conjugating enzyme E2 N (Homo sapiens, UniProt P61088)", "T3 sequence (P61088 whole entry)": "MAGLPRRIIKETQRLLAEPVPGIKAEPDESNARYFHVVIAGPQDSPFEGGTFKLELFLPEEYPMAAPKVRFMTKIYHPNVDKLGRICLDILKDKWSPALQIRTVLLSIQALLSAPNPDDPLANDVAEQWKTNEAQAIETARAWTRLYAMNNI", "type": "functional"}, "[7]": {"molecular_target": "T3, Ubiquitin-conjugating enzyme E2 N", "type": "functional", "remark": "listed apart in the source"}, "[8]": {"molecular_target": "T4, Microphthalmia-associated transcription factor (Homo sapiens, UniProt O75030)", "T4 sequence (O75030 whole entry)": "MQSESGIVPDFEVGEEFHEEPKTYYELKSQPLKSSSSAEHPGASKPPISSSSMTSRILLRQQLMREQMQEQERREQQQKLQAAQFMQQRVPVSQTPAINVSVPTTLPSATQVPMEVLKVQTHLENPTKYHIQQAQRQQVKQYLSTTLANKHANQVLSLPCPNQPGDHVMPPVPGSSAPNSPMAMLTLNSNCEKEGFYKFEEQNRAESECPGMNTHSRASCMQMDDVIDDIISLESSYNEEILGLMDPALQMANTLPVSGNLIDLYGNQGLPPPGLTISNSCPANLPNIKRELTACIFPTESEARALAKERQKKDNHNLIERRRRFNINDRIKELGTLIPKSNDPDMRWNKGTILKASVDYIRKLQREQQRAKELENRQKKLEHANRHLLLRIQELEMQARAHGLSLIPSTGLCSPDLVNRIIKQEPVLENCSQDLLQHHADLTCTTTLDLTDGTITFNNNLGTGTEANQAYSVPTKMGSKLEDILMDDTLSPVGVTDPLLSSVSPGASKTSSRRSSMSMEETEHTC", "assay": "TRPM1 promoter luciferase signal decrease, dose response, MITF inhibitor project, cell-based, SK-MEL-5, cherry-picked, set 3 (AID 493073)", "type": "functional"}, "[9]": {"molecular_target": "T5, Replicative DNA helicase DnaB (Mycobacterium tuberculosis, UniProt P9WMR3)", "T5 sequence (P9WMR3 whole entry)": "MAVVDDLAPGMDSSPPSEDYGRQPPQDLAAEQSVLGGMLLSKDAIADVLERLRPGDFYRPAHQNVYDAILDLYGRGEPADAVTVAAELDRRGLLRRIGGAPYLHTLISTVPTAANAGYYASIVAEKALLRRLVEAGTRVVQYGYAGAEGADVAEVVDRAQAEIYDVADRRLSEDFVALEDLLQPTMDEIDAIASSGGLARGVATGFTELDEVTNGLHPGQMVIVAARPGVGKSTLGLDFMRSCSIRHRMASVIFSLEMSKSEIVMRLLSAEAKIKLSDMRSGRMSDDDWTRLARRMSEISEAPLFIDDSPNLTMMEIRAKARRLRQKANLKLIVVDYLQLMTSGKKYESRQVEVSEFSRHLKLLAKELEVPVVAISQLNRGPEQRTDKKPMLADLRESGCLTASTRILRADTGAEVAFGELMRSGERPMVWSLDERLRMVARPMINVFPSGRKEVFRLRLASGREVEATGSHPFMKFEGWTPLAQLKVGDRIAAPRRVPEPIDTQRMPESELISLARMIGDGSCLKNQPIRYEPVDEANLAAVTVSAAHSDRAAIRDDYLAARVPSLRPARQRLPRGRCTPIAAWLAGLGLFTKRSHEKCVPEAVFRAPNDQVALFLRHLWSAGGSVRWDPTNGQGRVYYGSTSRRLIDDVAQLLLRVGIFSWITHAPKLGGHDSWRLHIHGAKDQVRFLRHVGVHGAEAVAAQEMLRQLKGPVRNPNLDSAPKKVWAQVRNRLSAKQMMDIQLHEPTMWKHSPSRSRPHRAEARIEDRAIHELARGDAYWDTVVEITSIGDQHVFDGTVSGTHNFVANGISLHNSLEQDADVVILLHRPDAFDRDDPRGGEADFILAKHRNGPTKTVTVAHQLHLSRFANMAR", "assay": "DnaB intein splicing inhibitors, dose response, biochemical, cell-free fluorescence (AID 449749)", "type": "functional"}, "Protein RecA": {"molecular_target": "T6, Protein RecA (Mycobacterium tuberculosis, UniProt P9WHJ3)", "T6 sequence (P9WHJ3 whole entry)": "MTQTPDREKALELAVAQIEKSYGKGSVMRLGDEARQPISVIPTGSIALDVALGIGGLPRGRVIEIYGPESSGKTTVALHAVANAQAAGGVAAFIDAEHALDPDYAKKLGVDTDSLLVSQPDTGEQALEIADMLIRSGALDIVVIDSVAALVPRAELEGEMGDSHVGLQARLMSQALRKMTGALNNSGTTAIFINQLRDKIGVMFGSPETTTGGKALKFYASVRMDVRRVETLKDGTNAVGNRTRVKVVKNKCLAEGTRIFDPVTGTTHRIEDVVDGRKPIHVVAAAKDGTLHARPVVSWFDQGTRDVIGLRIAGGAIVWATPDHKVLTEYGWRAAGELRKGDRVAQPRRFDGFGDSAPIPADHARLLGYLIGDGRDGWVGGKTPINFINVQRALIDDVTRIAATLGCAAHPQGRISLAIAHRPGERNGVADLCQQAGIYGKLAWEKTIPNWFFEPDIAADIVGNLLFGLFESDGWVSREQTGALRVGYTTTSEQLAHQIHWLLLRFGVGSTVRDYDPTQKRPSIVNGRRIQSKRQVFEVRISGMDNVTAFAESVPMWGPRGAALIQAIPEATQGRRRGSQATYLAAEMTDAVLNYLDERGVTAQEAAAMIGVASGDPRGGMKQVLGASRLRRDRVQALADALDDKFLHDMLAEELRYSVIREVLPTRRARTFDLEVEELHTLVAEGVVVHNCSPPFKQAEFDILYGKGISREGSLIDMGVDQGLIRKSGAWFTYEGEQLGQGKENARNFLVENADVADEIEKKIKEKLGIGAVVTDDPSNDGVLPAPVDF", "assay": "Fluorescence Cell-Free Homogeneous Dose Retest to Identify Inhibitors of RecA-Intein Splicing Activity. [Related pubchem assays (depositor defined):AID2097, AID2223, AID489010, AID492950]", "type": "functional"}, "Genome polyprotein": {"molecular_target": "Genome polyprotein (dengue virus type 2, UniProt P29990)", "sequence (P29990 2492-3391 limits assumed)": "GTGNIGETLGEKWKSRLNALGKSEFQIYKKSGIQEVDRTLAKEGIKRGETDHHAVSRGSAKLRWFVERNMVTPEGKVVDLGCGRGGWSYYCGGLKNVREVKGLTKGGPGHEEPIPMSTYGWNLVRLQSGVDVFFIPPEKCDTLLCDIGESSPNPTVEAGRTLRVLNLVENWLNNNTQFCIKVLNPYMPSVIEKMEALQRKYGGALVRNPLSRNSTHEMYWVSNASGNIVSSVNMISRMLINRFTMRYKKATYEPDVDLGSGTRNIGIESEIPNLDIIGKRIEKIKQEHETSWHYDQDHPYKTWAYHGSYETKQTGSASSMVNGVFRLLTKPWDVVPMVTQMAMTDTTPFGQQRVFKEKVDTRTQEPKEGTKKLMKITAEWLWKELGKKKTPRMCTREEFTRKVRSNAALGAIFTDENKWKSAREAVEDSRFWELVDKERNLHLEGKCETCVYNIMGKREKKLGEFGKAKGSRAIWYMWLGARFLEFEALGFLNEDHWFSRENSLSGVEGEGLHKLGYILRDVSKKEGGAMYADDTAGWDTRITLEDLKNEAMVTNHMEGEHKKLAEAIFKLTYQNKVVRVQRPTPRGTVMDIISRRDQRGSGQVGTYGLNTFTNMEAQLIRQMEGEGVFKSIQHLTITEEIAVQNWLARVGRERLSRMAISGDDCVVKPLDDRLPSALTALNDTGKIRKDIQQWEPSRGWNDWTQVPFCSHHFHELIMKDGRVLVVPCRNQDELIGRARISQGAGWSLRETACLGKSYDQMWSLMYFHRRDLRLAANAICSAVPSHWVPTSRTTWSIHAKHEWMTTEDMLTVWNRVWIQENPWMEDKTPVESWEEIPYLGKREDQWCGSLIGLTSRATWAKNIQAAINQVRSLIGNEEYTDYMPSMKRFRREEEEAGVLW", "assay": "Dengue-2 NS5 methyltransferase inhibitors, primary screen, biochemical, confirmation dose response (AID 588689)", "type": "functional"}, "[10]": {"assay": "Shn3 3'UTR reporter inhibitors, dose response, cell-based, Clone20 osteoblasts, firefly luciferase, cherry-picked (AID 624132)", "type": "functional"}, "[11]": {"assay": "HepG2 cell cytotoxicity, dose response, cytotoxicity control for Shn3 inhibitor project, CellTiter-Glo, cherry-picked (AID 624134)", "type": "functional, cell-based"}, "[12]": {"assay": "control 3'UTR Renilla luciferase suppression, dose response, counter-screen for Shn3 inhibitor project, cell-based, Clone20-Shn3RL, cherry-picked (AID 624133)", "type": "functional"}}, "note": "Activity calls are given as the source filed them.", "data": [{"molecule": "CC(C)=CCC(OC(=O)C=C(C)C)c1cc(O)c2c(c1O)C(=O)C=CC2=O", "note": "(stereo not drawn)", "values": [{"measurement": "GI50", "setting": "P388/ADR", "result": "0.023 µM (active)"}, {"measurement": "GI50", "setting": "SN12K1", "result": "1.2 µM (inactive)"}, {"measurement": "GI50", "setting": "P388", "result": "0.0296 µM (active)"}]}, {"molecule": "CCOc1ccccc1C(=O)Nc1cc(Cl)ccc1O", "values": [{"measurement": "EC50", "setting": "[1]", "result": "38 µM (inactive)"}, {"measurement": "EC50", "setting": "[2]", "result": "> 99 µM (inactive)"}]}, {"molecule": "COc1cc(C2c3cc4c(cc3[C@@H](Nc3ccc([N+](=O)[O-])cc3)C3COC(=O)[C@H]23)OCO4)cc(OC)c1O", "note": "(stereo partly drawn)", "values": [{"measurement": "GI50", "setting": "P388/ADR", "result": "0.324 µM (active)"}, {"measurement": "GI50", "setting": "SN12K1", "result": "0.0427 µM (active)"}, {"measurement": "GI50", "setting": "P388", "result": "< 0.01 µM (active)"}]}, {"molecule": "C/C(=N\\Nc1ccc([N+](=O)[O-])cc1)c1cc2ccccc2o1", "values": [{"measurement": "IC50", "setting": "CHO", "result": "49.7 µM (inactive)"}, {"measurement": "IC50", "setting": "Beta Lactamase", "result": "3 µM (active)"}, {"measurement": "IC50", "setting": "[3]", "result": "1.82 µM (active)"}, {"measurement": "IC50", "setting": "[4]", "result": "> 100 µM (inactive)"}, {"measurement": "IC50", "setting": "Prothrombin", "result": "1.62 µM (active)"}]}, {"molecule": "O=C(NC(Cc1ccc(I)cc1)C(=O)O)c1ccc(Br)cc1", "note": "(stereo not drawn)", "values": [{"measurement": "GI50", "setting": "P388/ADR", "result": "21.3 µM (inactive)"}, {"measurement": "GI50", "setting": "SN12K1", "result": "> 100 µM (inactive)"}, {"measurement": "GI50", "setting": "P388", "result": "53.7 µM (inactive)"}]}, {"molecule": "Cc1[nH]c2ccccc2c1/C=C(\\C#N)C(=O)NCc1ccccc1", "values": [{"measurement": "EC50", "setting": "[1]", "result": "> 99 µM (inactive)"}, {"measurement": "EC50", "setting": "[2]", "result": "> 99 µM (inactive)"}]}, {"molecule": "COc1cc(/N=N\\c2ccc(OC)c(S(=O)(=O)O)c2)c(C)cc1/N=N\\c1ccc(/C=C/c2ccc(/N=[N+](/[O-])c3ccc(/C=C/c4ccc(/N=N/c5cc(C)c(/N=N\\c6ccc(OC)c(S(=O)(=O)O)c6)cc5OC)cc4S(=O)(=O)O)c(S(=O)(=O)O)c3)cc2S(=O)(=O)O)c(S(=O)(=O)O)c1", "values": [{"measurement": "GI50", "setting": "SN12K1", "result": "> 100 µM (inactive)"}, {"measurement": "GI50", "setting": "P388", "result": "> 100 µM (inactive)"}]}, {"molecule": "CS(=O)(=O)c1ncc(Cl)c(C(=O)Nc2ccc(N3CCOCC3)cc2)n1", "values": [{"measurement": "AC50", "setting": "[5]", "result": "5.14 µM (active)"}, {"measurement": "IC50", "setting": "Bcl-2-related protein A1", "result": "> 20 µM (inactive)"}, {"measurement": "IC50", "setting": "[6]", "result": "14.9 µM (active)"}, {"measurement": "IC50", "setting": "[7]", "result": "> 20 µM (inactive)"}, {"measurement": "AC50", "setting": "[8]", "result": "22.8 µM (active)"}, {"measurement": "IC50", "setting": "CHO", "result": "4.79 µM (active)"}, {"measurement": "AC50", "setting": "[9]", "result": "4.51 µM (active)"}, {"measurement": "EC50", "setting": "Protein RecA", "result": "12.8 µM (active)"}, {"measurement": "IC50", "setting": "Beta Lactamase", "result": "10.2 µM (inactive)"}, {"measurement": "IC50", "setting": "Genome polyprotein", "result": "> 100 µM (active)"}, {"measurement": "AC50", "setting": "[10]", "result": "1.21 µM (active)"}, {"measurement": "AC50", "setting": "[11]", "result": "24 µM (active)"}, {"measurement": "AC50", "setting": "[12]", "result": "12.9 µM (active)"}]}]}
